Paper PMC9873984, “Membrane cholesterol regulates inhibition and substrate transport by the glycine transporter, GlyT2” (Life Science Alliance, 2023)
pEC50: −log10 of the molar value.

Target: T1, WT GlyT2 (Homo sapiens, UniProt Q9Y345)
T1 sequence (Q9Y345 1-797): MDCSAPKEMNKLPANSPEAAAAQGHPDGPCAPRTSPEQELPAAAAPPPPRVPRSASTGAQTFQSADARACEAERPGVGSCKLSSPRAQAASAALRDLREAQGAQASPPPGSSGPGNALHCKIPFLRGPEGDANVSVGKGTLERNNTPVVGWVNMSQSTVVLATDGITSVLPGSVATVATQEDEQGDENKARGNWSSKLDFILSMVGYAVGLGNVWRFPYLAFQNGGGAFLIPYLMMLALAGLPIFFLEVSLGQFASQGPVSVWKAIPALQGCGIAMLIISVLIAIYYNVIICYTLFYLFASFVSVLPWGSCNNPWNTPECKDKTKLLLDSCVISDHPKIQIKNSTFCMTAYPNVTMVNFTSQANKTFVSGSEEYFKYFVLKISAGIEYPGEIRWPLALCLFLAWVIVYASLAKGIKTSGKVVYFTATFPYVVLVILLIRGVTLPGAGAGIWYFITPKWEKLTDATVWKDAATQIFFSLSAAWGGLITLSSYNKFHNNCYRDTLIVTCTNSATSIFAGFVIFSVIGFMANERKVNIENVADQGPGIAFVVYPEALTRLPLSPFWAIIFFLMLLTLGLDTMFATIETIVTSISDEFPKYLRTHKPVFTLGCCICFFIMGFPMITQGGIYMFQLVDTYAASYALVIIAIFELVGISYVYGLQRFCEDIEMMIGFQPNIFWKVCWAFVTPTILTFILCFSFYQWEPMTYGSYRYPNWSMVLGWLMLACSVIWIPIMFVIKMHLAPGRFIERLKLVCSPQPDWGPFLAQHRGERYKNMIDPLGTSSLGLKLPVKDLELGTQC
Conditions: read-out: Glycine EC50; WT GlyT2 in Xenopus laevis oocytes; glycine 1 μM – 3 mM
Protocol: The transport activity of GlyT2 is an electrogenic process as it couples the transport of glycine to the co-transport of 3 Na^+ and 1 Cl^− and thus can be measured using two-electrode voltage-clamp electrophysiology. Oocytes expressing GlyTs were voltage-clamped at −60 mV, and glycine-induced whole-cell currents were measured using a GeneClamp 500 amplifier (Axon Instruments), and a PowerLab 2/26 chart recorder (ADInstruments) and LabChart Software (ADInstruments).
Functionality of WT and mutant GlyT2 transporters was assessed by applying increasing concentrations of glycine (1–3,000 µM) in ND96 until a stable current was achieved. Glycine concentrations were applied individually and completely removed from the system via washing with recording buffer before proceeding to the next concentration. EC50 values for each transporter were determined by fitting concentration–response data to the modified Michaelis–Menten equation: I=([Gly].Imax)/(EC50+[Gly]), where I is current in nA, [Gly] is the concentration of glycine, Imax is the current generated by a maximal concentration of glycine, and EC50 is the concentration of glycine that generates a half-maximal current.

NCC(=O)O [Glycine, glycine]
pEC50: 4.74
